ChEMBL document CHEMBL5143574, “Unraveling the anti-virulence potential and antifungal efficacy of 5-aminotetrazoles using the zebrafish model of disseminated candidiasis” (Eur J Med Chem, 2022)
Values after ≈ are worked out from the molar mass of the structure shown. Active and inactive are the calls of the source. The calls are words filed in the database; no cut-off is given here.

Legend:
[1] = Toxicity against zebrafish embryo infected with 53-75 RFP expressing cells of Candida albicans M137 assessed as mortality at 2.5 to 10 uM treated at 1 hr post-infection and measured on day 4 post-infection; set-up: species or system Danio rerio; settings: 96 h, dose 2.5-10 µM, time 4 day
[2] = system: Candida albicans; assay: Anti-virulence activity against Candida albicans SC5314 assessed as inhibition of fungal filamentation by measuring reduction in hyphae formation in SLAD medium upto 10 uM incubated for 3 to 5 days by stereomicroscopic analysis; format: functional, organism-based; settings: time 3-5 day
[3] = system: Candida albicans; assay: Anti-virulence activity against Candida albicans SC5314 assessed as inhibition of fungal filamentation by measuring reduction of hyphae formation in RPMI medium at 1.3 uM incubated for 3 to 5 days by stereomicroscopic analysis; format: functional, organism-based; settings: time 3-5 day
[4] = system: Candida albicans; assay: Anti-virulence activity against Candida albicans SC5314 assessed as inhibition of fungal filamentation by measuring reduction of hyphae formation in GlcNAc medium at 1.3 uM incubated for 3 to 5 days by stereomicroscopic analysis; format: functional, organism-based; settings: time 3-5 day
[5] = system: Candida albicans; assay: Anti-virulence activity against Candida albicans SC5314 assessed as inhibition of fungal filamentation by measuring reduction of hyphae formation in Spider medium at 1.3 uM incubated for 3 to 5 days by stereomicroscopic analysis; format: functional, organism-based; settings: time 3-5 day
[6] = system: Candida albicans; assay: Anti-virulence activity against Candida albicans SC5314 assessed as inhibition of fungal filamentation by measuring reduction in hyphae formation in Spider medium upto 10 uM incubated for 3 to 5 days by stereomicroscopic analysis; format: functional, organism-based; settings: time 3-5 day
[7] = system: Candida albicans; assay: Anti-virulence activity against Candida albicans SC5314 assessed as inhibition of fungal filamentation by measuring reduction of hyphae formation in RPMI medium upto 10 uM incubated for 3 to 5 days by stereomicroscopic analysis; format: functional, organism-based; settings: time 3-5 day
[8] = Toxicity in zebrafish embryos assessed as mortality treated at 6 hpf and measured at 120 hpf by stereomicroscopic analysis; set-up: species or system Danio rerio; settings: in vivo
[9] = system: Candida albicans; assay: Anti-virulence activity against Candida albicans SC5314 assessed as inhibition of fungal filamentation by measuring reduction in hyphae formation in Lee medium upto 10 uM incubated for 3 to 5 days by stereomicroscopic analysis; format: functional, organism-based; settings: time 3-5 day
[10] = system: Candida albicans; assay: Anti-virulence activity against Candida albicans SC5314 assessed as inhibition of fungal filamentation by measuring reduction in hyphae formation in YPS plus uridine medium upto 10 uM incubated for 3 to 5 days by stereomicroscopic analysis; format: functional, organism-based; settings: time 3-5 day
[11] = system: Candida albicans; assay: Anti-virulence activity against Candida albicans SC5314 assessed as inhibition of fungal filamentation by measuring reduction of hyphae formation in YPS plus uridine medium at 1.3 uM incubated for 3 to 5 days by stereomicroscopic analysis; format: functional, organism-based; settings: time 3-5 day
[12] = system: Candida albicans; assay: Anti-virulence activity against 53-75 RFP expressing cells of Candida albicans M137 in hind brain of zebra fish embryo disseminated candidiasis model assessed as inhibition of fungal filamentation by measuring reduction of hyphae formation in the hind brain at 10 uM treated at 1 hr post-infection and measured on day 4 post infection by fluorescence microscopy; format: functional; settings: M137, 96 h, time 4 day
[13] = system: Candida albicans; assay: Anti-virulence activity against Candida albicans SC5314 assessed as inhibition of fungal filamentation by measuring reduction of hyphae formation in SLAD medium at 1.3 uM incubated for 3 to 5 days by stereomicroscopic analysis; format: functional, organism-based; settings: time 3-5 day
[14] = system: Candida albicans; assay: Antifungal activity against Candida albicans SC5314 assessed as inhibition of fungal growth incubated for 24 hrs by broth microdilution assay; format: functional
[15] = system: Candida albicans; assay: Anti-virulence activity against Candida albicans SC5314 assessed as inhibition of fungal filamentation by measuring reduction of hyphae formation in YPS medium at 1.3 uM incubated for 3 to 5 days by stereomicroscopic analysis; format: functional, organism-based; settings: time 3-5 day
[16] = system: Candida albicans; assay: Anti-virulence activity against Candida albicans SC5314 assessed as inhibition of fungal filamentation by measuring reduction of hyphae formation in Lee medium at 1.3 uM incubated for 3 to 5 days by stereomicroscopic analysis; format: functional, organism-based; settings: time 3-5 day
[17] = system: Candida albicans; assay: Anti-virulence activity against Candida albicans SC5314 assessed as inhibition of fungal filamentation by measuring reduction in hyphae formation in GlcNAc medium upto 10 uM incubated for 3 to 5 days by stereomicroscopic analysis; format: functional, organism-based; settings: time 3-5 day
[18] = system: Candida albicans; assay: Anti-virulence activity against Candida albicans SC5314 assessed as inhibition of fungal filamentation by measuring reduction in hyphae formation in YPS medium upto 10 uM incubated for 3 to 5 days by stereomicroscopic analysis; format: functional, organism-based; settings: time 3-5 day
[19] = system: Candida albicans; assay: Anti-virulence activity against Candida albicans SC5314 assessed as inhibition of fungal filamentation by measuring reduction in hyphae formation in Spider medium at 5 uM incubated for 3 to 5 days by stereomicroscopic analysis; format: functional, organism-based; settings: time 3-5 day
[20] = system: Candida albicans; assay: Anti-virulence activity against Candida albicans SC5314 assessed as inhibition of fungal filamentation by measuring reduction in hyphae formation in YPS plus uridine medium at 5 uM incubated for 3 to 5 days by stereomicroscopic analysis; format: functional, organism-based; settings: time 3-5 day
[21] = system: Candida albicans; assay: Anti-virulence activity against Candida albicans SC5314 assessed as inhibition of fungal filamentation by measuring reduction in hyphae formation in YPS medium at 5 uM incubated for 3 to 5 days by stereomicroscopic analysis; format: functional, organism-based; settings: time 3-5 day
[22] = system: Candida albicans; assay: Anti-virulence activity against Candida albicans SC5314 assessed as inhibition of fungal filamentation by measuring reduction in hyphae formation in RPMI medium at 5 uM incubated for 3 to 5 days by stereomicroscopic analysis; format: functional, organism-based; settings: time 3-5 day
[23] = system: Candida albicans; assay: Anti-virulence activity against Candida albicans SC5314 assessed as inhibition of fungal filamentation by measuring reduction in hyphae formation in Lee medium at 5 uM incubated for 3 to 5 days by stereomicroscopic analysis; format: functional, organism-based; settings: time 3-5 day

| SMILES | LC50 [8] [µM] | MIC [14] [µM] | Activity [19] | Activity [20] | Activity [21] | Activity [22] | Activity [23] | other results |
| --- | --- | --- | --- | --- | --- | --- | --- | --- |
| c1ccc(Nc2nnnn2CCC23CC4CC(CC(C4)C2)C3)cc1 | > 200 | > 200 |  |  |  |  |  | Activity [1]: Non-Toxic; Activity [2]: Active; Activity [3]: Active; Activity [4]: Active; Activity [5]: Active; Activity [6]: Active; Activity [7]: Active; Activity [9]: Active; Activity [10]: Active; Activity [11]: Active; inhibition in vivo at 10 µM [12]: 100%; Activity [13]: Active; Activity [15]: Active; Activity [16]: Active; Activity [17]: Active; Activity [18]: Active |
| CN(C)CCCNc1nccc(Nc2nnnn2Cc2ccccc2)n1 | > 200 | > 200 |  |  |  |  |  |  |
| Nc1nnn(CCC23CC4CC(CC(C4)C2)C3)n1 | > 200 | > 200 |  |  |  |  |  | Activity [2]: Active; Activity [3]: Active; Activity [4]: Active; Activity [5]: Active; Activity [6]: Active; Activity [7]: Active; Activity [9]: Active; Activity [10]: Active; Activity [11]: Active; Activity [13]: Active; Activity [15]: Active; Activity [16]: Active; Activity [17]: Active; Activity [18]: Active |
| c1ccc(Cn2nnnc2Nc2ccccc2)cc1 | > 200 | > 200 |  |  |  |  |  | Activity [2]: Active; Activity [6]: Active; Activity [7]: Active; Activity [9]: Active; Activity [10]: Active; Activity [17]: Active; Activity [18]: Active |
| CCCn1nnnc1Nc1ccccc1 | > 200 | > 200 | Active | Active | Active | Active | Active |  |
| Nc1nnn(Cc2ccccc2)n1 | > 200 | > 200 |  |  |  |  |  |  |
| CCCn1nnc(Nc2ccccc2)n1 | > 200 | > 200 | Active | Active | Active | Active | Active |  |
| Clc1ccc(Nc2nnnn2Cc2ccccc2)cc1 | > 200 | > 200 |  |  |  |  |  |  |
| Nc1nnnn1Cc1ccccc1 | > 200 | > 200 | Active | Active | Active | Active | Active |  |
| CCCn1nnnc1Nc1ccnc(Cl)n1 | > 200 | > 200 |  |  |  |  |  | Activity [2]: Active; Activity [6]: Active; Activity [7]: Active; Activity [9]: Active; Activity [10]: Active; Activity [17]: Active; Activity [18]: Active |
| Cc1cc(Cl)ccc1Nc1nnnn1Cc1ccccc1 |  | 6.4 (≈ 1.92 µg/mL) |  |  |  |  |  |  |
| c1ccc(Nc2nnn(CCC34CC5CC(CC(C5)C3)C4)n2)cc1 | > 200 | > 200 | Active | Active | Active | Active | Active |  |
| O=[N+]([O-])c1ccc(Nc2nnnn2Cc2ccccc2)cc1 | > 200 | > 200 |  |  |  |  |  |  |
| c1ccc(Nc2nnnn2-c2ccccc2)cc1 |  | 194 (≈ 46 µg/mL) | Active | Active | Active | Active | Active |  |
| Clc1cccc(Nc2nnnn2Cc2ccccc2)c1 | > 200 | > 200 |  |  |  |  |  |  |
